Laboratory results taken from patent publication US20030229164A1, “Low foam N-alkyltartarimide and N-alkylmalimide wetting agents” (priority 2002, published 2003).

What was measured:
[1] = Foaming properties of aqueous solutions, procedure based upon ASTM D 1173-53; assay type: physicochemical; conditions: for Initial Foam: foam height at completion of addition
Experimental: The foaming properties of aqueous solutions of N-2-ethylhexyl tartarimide (Ex 1), N-decyl tartarimide (Ex 2), N-2-ethylhexyl malimide (Ex 4) and two representative nonionic surfactants, a commercial nonylphenol 15 mole ethoxylate surfactant and a commercial C8 alkyl glucoside surfactant, were examined using a procedure based upon ASTM D 1173-53.
In this test, a 0.1 wt % aqueous mixtures of the tartramides and malimide were prepared, any undissolved solids were filtered off, and the filtrate was added from an elevated glass pipette to a glass receiver containing the same filtrate. Regarding the commercial materials, a 0.1 wt % solution of the surfactant was added from an elevated glass pipette to a glass receiver containing the same solution. The foam height was measured at the completion of the addition (“Initial Foam Height”) and the time required for the foam to dissipate at the air-liquid interface (“Time to 0 Foam”) was recorded. This test provides a comparison between the foaming characteristics of various surfactants. In general, in coatings, inks, adhesives and agricultural formulations, foam is undesirable because it complicates handling and can lead to coating and print defects, and to inefficient application of agricultural materials.

[2] = Equilibrium surface tension of aqueous solutions, Wilhelmy plate method; assay type: physicochemical; conditions: for lowering the equilibrium surface tension of water (in words): aqueous solutions, Table 1 data; for Limiting EST: saturated solutions containing <0.1 wt % in distilled water, filtered, Wilhelmy plate
Experimental: where R^1 is a C5 to C10 alkyl group. […] The Wilhelmy plate method of measuring surface tension is described in L. Wilhelmy's article in Ann. Phys. 1863, 119, 177, which is incorporated by reference.
Saturated solutions containing <0.1 wt % of the materials of Examples 1-4 in distilled water were prepared. After shaking the solutions for ˜24 hours, the undissolved material was removed via filtration. Equilibrium surface tension data were obtained using the Wilhelmy plate method.
The limiting surface tensions represent the lowest surface tensions in water which can be achieved for a given surfactant regardless of the amount of surfactant used and is used to evaluate the effectiveness of a surfactant. Lower surface tensions would allow the elimination of defects upon application of a formulation onto low energy surfaces.

[3] = 0.1 wt % aqueous mixture (filtrate) or solution

## CCCCCCCCCCN1C(=O)C(O)C(O)C1=O (racemic) [Example 2, N-Decyl DL-tartarimide]
[1]; [3]
  Foam after 5 min: 0 cm
  Initial Foam: 3.2 cm
[1]; 0.1 wt % aqueous mixture (filtrate) or solution, values given in min
  Time to zero foam: 3.8 min
[2]
  lowering the equilibrium surface tension of water (in words): particularly effective
  Limiting EST: 32.0 dyne/cm

## CCCCC(CC)CN1C(=O)C(O)C(O)C1=O (centres unmarked) [Example 1, N-2-Ethylhexyl tartarimide]
[1]; [3]
  Foam after 5 min: 0 cm
  Initial Foam: 0 cm
[1]; 0.1 wt % aqueous mixture (filtrate), values printed in sec
  Time to zero foam: 0 min
[2]
  lowering the equilibrium surface tension of water (in words): particularly effective
  Limiting EST: 34.2 dyne/cm

## CCCCCCN1C(=O)C(O)C(O)C1=O (racemic) [Example 3, N-hexyl DL-tartarimide]
[2]
  Limiting EST: 51.8 dyne/cm
